Measured values taken from patent US20110123562A1, “ANTI-CANCER ACTIVE SUBSTANCE FROM ANTRODIA CAMPHORATA, METHOD FOR PREPARING THE SAME AND USE THEREOF” (priority 2009, published 2011).

What was measured:
Type in all cases: cell-based
HepG2 cells [1] = experiment: Anti-proliferation of HepG2 cells, MTS assay
Protocol: (§1) HepG2 cells were obtained from American Type Culture Collection, ATCC, Rockville, Md., U.S.A. and were maintained in Williams medium E (WME), containing 10 mM/L HEPES, 5 μg/mL insulin, 2 μg/mL, glucagon, 0.05 μg/mL hydrocortisone, and 5% fetal bovine serum (Gibco Life Technologies, Grand Island, N.Y., USA). Colon cancer cells (CT26, BCRC 60443), prostate cancer cells (LNCaP, BCRC 60088) and breast cancer cells (MDA-MB-231, BCRC 60425) were obtained from the Biosources Collection and Research Center (BCRC) in the Food industry Research and Development Institute (Hsinchu, Taiwan).
HepG2 cells in WME were cultured on a 96-well cell culture plate (2.5×10^4cells per well) and incubate at 37° C. with 5% CO2. After 4 hours incubation, replace the medium with different concentrations of Antrodia camphorata sample extracts. The Antrodia camphorata extracts were dissolved in 1% dimethyl sulfoxide (DMSO) and mixed with WME medium so as to prepare extracts at different concentrations and the final concentration of DMSO was maintained below 1%. Control cultures contained only extraction solvents, and blank wells contained 100 μL growth medium with no cells. After 72 and 96 h of incubation, cell proliferation was determined by MTS assay (MTS-based cell titer 96 non-radioactivity cell proliferation assay, Promega, Madison, Wis., U.S.A.) so as to examine the anti-hepatoma activity. MTS is a colorimetric method utilizing a tetrazolium reagent. Cell proliferation was determined at 72 and 96 h from the MTS absorbance reading at 490 nm for each concentration compared with the control. […] The EC50 of a sample is defined as the median effective dose of a sample (the concentration of the sample which results in 50% of cell viability) after treating the cancer cells for a certain period of time. At least three replications of each sample were tested to confirm cell proliferation and cytotoxicity. The selective effect on cancer cells was expressed as SI (selective index) value. The SI value was determined as the ratio of CC50 versus EC50 for a tested sample.

HepG2 cells [2] = experiment: Cytotoxicity (CC50) on HepG2 cells, MTS assay; details: concentration reducing cell viability to 50% of control in 24 h
Protocol: as §1
(§2) HepG2 cells in WME were cultured on a 96-well cell culture plate (2.5×10^4cells per well) and incubate at 37° C. with 5% CO2. After 4 hours incubation, replace the medium with different concentrations of Antrodia camphorata sample extracts. […] After 72 and 96 h of incubation, cell proliferation was determined by MTS assay (MTS-based cell titer 96 non-radioactivity cell proliferation assay, Promega, Madison, Wis., U.S.A.) so as to examine the anti-hepatoma activity. […] Cell proliferation was determined at 72 and 96 h from the MTS absorbance reading at 490 nm for each concentration compared with the control. […] The selective effect on cancer cells was expressed as SI (selective index) value. The SI value was determined as the ratio of CC50 versus EC50 for a tested sample.

[3] = tested on: colon cancer cells (CT26); experiment: Anti-proliferative activity against colon cancer cells
Protocol: as §1, §2

[4] = tested on: prostate cancer cells (LNCaP); experiment: Anti-proliferative activity against prostate cancer cells
Protocol: as §1, §2

[5] = tested on: breast cancer cells (MDA-MB-231); experiment: Anti-proliferative activity against breast cancer cells; details: MDA-MB-231 breast cancer cells
Protocol: as §1, §2

EC50 72 hours (HepG2 cells [1]; 72 h treatment, MTS): 0.1 µg/mL | EC50 96 hours (HepG2 cells [1]; 96 h treatment, MTS): 0.08 µg/mL | IC50 [3]: 48.12 ± 5.61 µg/mL | IC50 [4]: 16.841 ± 3.41 µg/mL | IC50 [5]: 0.091 µg/mL
Substance: 4-acetylantroquinonol B
anti-proliferative activity compared to crude extract (HepG2 cells [1]): 50 times | CC50 (HepG2 cells [2]): > 10 µg/mL | cell viability [3]: below 50% | cell viability [4]: below 50% | cell viability [5]: below 50%
